Assay results published in US8071600B2, “Derivatives of 4-piperazin-1-yl-4-benzo[B]thiophene suitable for the treatment of CNS disorders” (Otsuka Pharmaceutical Co., Ltd., priority 2005, dated 2011).

How the values were obtained:
Dopamine D2 receptor = molecular target: T1, Dopamine D2 receptor (Rattus norvegicus, UniProt P61169); assay: Dopamine D2 receptor binding assay ([3H]-raclopride); conditions: Dopamine D2 receptor binding test, rat corpus striatum membrane, Ki calculated from IC50 by Cheng-Prussoff formula
T1 construct: from tissue; host or cells: Wistar rat brain, corpus striatum membranes
T1 sequence (P61169 whole entry): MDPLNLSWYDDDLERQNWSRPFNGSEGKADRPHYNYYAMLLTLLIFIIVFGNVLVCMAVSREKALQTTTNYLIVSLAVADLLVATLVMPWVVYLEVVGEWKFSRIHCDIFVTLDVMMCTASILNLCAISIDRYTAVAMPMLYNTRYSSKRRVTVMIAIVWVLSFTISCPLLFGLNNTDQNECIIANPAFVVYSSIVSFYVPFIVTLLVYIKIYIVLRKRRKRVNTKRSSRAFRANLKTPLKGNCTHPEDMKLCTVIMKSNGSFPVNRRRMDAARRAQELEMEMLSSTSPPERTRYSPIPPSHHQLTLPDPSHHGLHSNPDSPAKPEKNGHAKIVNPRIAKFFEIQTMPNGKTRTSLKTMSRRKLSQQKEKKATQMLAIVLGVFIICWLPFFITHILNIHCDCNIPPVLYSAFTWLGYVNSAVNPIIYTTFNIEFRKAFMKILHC
Method: 1) Dopamine D2 Receptor Binding Assay
The assay was performed according to the method by Kohler et al. (Kohler C, Hall H, Ogren S O and Gawell L, Specific in vitro and in vivo binding of 3H-raclopride. A potent substituted benzamide drug with high affinity for dopamine D-2 receptors in the rat brain. Biochem. Pharmacol., 1985; 34: 2251-2259).
Wistar male rats were decapitated, the brain was retrieved immediately and corpus striatum was taken out. It was homogenized in 50 mM tris(hydroxymethyl)aminomethane (Tris)-hydrochloric acid buffer (pH 7.4) of a volume 50 times of the weight of the tissue using a homogenizer with a high-speed rotating blade, and centrifuged at 4° C., 48,000×g for 10 minutes. The obtained precipitate was suspended again in the above-described buffer of a volume 50 times of the weight of the tissue and after incubated at 37° C. for 10 minutes, centrifuged in the above-described condition. The obtained precipitate was suspended in 50 mM (Tris)-hydrochloric acid buffer (containing 120 mM NaCl, 5 mM KCl, 2 mM CaCl2, 1 mM MgCl2, pH 7.4) of a volume 25 times of the weight of the tissue and preserved by freezing at −85° C. till it was used for binding assay as a membrane specimen.
The binding assay was performed using 40 μl of the membrane specimen, 20 μl of [^3H]-raclopride (final concentration 1 to 2 nM), 20 μl of a test drug and 50 mM Tris-hydrochloric acid buffer (containing 120 mM NaCl, 5 mM KCl, 2 mM CaCl2, 1 mM MgCl2, pH 7.4) so that the total amount was 200 μl (final dimethylsulfoxide concentration 1%). The reaction was performed at room temperature for 1 hour and terminated by conducting suction filtration with a cell harvester on a glass fiber filter plate. The filter plate made of glass fiber was washed with 50 mM Tris-hydrochloric acid buffer (pH 7.4), and after dried, a microplate liquid scintillation cocktail was added and the radioactivity was measured with a microplate scintillation counter. Radioactivity in the presence of 10 μM (+)-butaclamol hydrochloride was assumed as nonspecific binding.
(§1) IC50 value was calculated from concentration-dependent reaction using a non-linear analysis program. Ki value was calculated from IC50 value using Cheng-Prussoff formula.

[1] = molecular target: T2, Serotonin 5-HT2A receptor (Rattus norvegicus, UniProt P14842); assay: Serotonin 5-HT2A receptor binding assay ([3H]-Ketanserin); conditions: Serotonin 5-HT2A receptor binding test, rat frontal cortex membrane, Ki calculated from IC50 by Cheng-Prussoff formula
T2 construct: from tissue; host or cells: Wistar rat brain, frontal cortex membranes
T2 sequence (P14842 whole entry): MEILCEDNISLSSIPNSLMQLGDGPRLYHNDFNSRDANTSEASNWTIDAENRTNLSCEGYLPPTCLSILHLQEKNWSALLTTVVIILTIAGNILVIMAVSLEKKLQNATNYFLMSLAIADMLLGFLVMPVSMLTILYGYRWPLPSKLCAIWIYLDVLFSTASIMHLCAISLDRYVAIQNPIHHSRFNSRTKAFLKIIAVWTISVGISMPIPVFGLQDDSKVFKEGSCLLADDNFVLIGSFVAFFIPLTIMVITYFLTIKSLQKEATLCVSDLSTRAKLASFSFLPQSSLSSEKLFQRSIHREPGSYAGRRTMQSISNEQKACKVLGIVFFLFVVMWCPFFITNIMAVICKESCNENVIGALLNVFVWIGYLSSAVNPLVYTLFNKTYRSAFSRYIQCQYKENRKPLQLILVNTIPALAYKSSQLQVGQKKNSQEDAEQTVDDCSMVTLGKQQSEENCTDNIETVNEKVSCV
Method: 2) Serotonin 5-HT2A Receptor Binding Assay
The assay was performed according to the method by Leysen J E et al. (Leysen J E, Niemegeers C J E, Van Nueten J M and Laduron P M. [3H] Ketanserin (R 41 468), a selective 3H-ligand for serotonin 2 receptor binding sites. Mol. Pharmacol., 1982, 21: 301-314).
Wistar male rats were decapitated, the brain was retrieved immediately and frontal cortex was taken out. It was homogenized in 0.25 M sucrose of a volume 10 times of the weight of the tissue using a Teflon glass homogenizer, and centrifuged at 4° C., 1,000×g for 10 minutes. The obtained supernatant was transferred to another centrifuge tube and suspended in 0.25 M sucrose of a volume 5 times of the weight of the tissue and the precipitate was centrifuged in the above-described condition. The obtained supernatant was combined with the supernatant obtained above and adjusted to a volume 40 times of the weight of the tissue with 50 mM Tris-hydrochloric acid buffer (pH 7.4), and centrifuged at 4° C., 35,000×g for 10 minutes. The obtained precipitate was suspended again in the above-described buffer of a volume 40 times of the weight of the tissue and centrifuged in the above-described condition. The obtained precipitate was suspended in the above-described buffer of a volume 20 times of the weight of the tissue and preserved by freezing at −85° C. till it was used for binding assay as a membrane specimen.
The binding assay was performed using 40 μl of the membrane specimen, 20 μl of [^3H]-Ketanserin (final concentration 1 to 3 nM), 20 μl of a test drug and 50 mM Tris-hydrochloric acid buffer (pH 7.4) so that the total amount was 200 μl (final dimethylsulfoxide concentration 1%). The reaction was performed at 37° C. for 20 minutes and terminated by conducting suction filtration with a cell harvester on a glass fiber filter plate.
The filter plate made of glass fiber was washed with 50 mM Tris-hydrochloric acid buffer (pH 7.4), and after dried, a microplate liquid scintillation cocktail was added and the radioactivity was measured with a microplate scintillation counter. Radioactivity in the presence of 10 μM spiperone was assumed as nonspecific binding.
as §1

[2] = test system: serotonin (5-HT) uptake by rat brain synaptosome; assay: Serotonin (5-HT) uptake inhibitory activity by rat brain synaptosome; type: biochemical; conditions: test compound 300 nM, tritium labeled 5-HT 8 nM, 10 minutes uptake at 37° C.
Method: Measurement of serotonin (5-HT) uptake inhibitory activity of a test compound by rat brain synaptosome
Wistar male rats were decapitated, the brain was retrieved and frontal cortex was dissected out, and it was homogenized in 0.32 M sucrose solution of a weight 20 times of the weight of the tissue using a Potter type homogenizer. The homogenate was centrifuged at 4° C., 1,000×g for 10 minutes, the obtained supernatant was further centrifuged at 4° C., 20,000×g for 20 minutes, and the pellet was suspended in an incubation buffer (20 mM Hepes buffer (pH 7.4) containing 10 mM glucose, 145 mM sodium chloride, 4.5 mM potassium chloride, 1.2 mM magnesium chloride, 1.5 mM calcium chloride), which was used as crude synaptosome fraction.
5-HT uptake reaction was performed in a volume of 200 μl using a 96-well round bottom plate and pargyline (final concentration 10 μM) and sodium ascorbate (final concentration 0.2 mg/ml) were contained in the incubation buffer upon reaction and used.
Incubation buffer (total counting), non-labeled 5-HT (final concentration 10 μM, non-specific counting) and the diluted test compound (final concentration 300 nM) were added to each well. One-tenth quantity of the final volume of the synaptosome fraction was added and after preincubated at 37° C. for 10 minutes, tritium labeled 5-HT solution (final concentration 8 nM) was added and uptake reaction was started at 37° C. The uptake time was 10 minutes and the reaction was terminated by vacuum filtration through a 96-well fiber glass filter paper plate, and after the filter paper was washed with cold normal saline, it was dried enough and Microscint0 (Perkin-Elmer) was added to the filter and remaining radioactivity on the filter was measured.
Serotonin uptake inhibitory activity (%) was calculated from the radioactivity of total counting as 100%, of non-specific counting as 0%, and of counting obtained with test compound. % of inhibition of 5-HT(%)=100−[(Count obtained with test compound−Nonspecific count (0% Uptake))/(Total count (100% Uptake)−Nonspecific count (0% Uptake))]×100 The results are shown in the next Table 314.

[3] = molecular target: Human recombinant dopamine D2 receptor (Homo sapiens, UniProt P14416); conditions: forskolin-stimulated D2 receptor expressing CHO cells; well without test compound = 100%
Human recombinant dopamine D2 receptor, sequence (P14416 whole entry): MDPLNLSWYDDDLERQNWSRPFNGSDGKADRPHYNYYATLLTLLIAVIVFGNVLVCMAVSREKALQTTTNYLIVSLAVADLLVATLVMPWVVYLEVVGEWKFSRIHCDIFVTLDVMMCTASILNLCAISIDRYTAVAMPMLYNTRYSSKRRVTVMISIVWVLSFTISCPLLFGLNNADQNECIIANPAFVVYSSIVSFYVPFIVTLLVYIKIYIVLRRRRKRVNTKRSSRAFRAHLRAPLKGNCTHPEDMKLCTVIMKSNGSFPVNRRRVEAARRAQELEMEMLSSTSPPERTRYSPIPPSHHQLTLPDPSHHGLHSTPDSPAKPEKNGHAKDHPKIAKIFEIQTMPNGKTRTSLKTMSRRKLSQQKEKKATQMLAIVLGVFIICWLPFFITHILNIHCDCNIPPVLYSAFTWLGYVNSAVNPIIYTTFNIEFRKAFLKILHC
Method: Partial agonistic activity on dopamine D2 receptor using D2 receptor expression cells
Partial agonistic activity on dopamine D2 receptor was evaluated by quantitatively determining cyclic AMP production inhibitory effect of a test compound in dopamine D2 receptor expression cells in which adenosine 3′,5′-cyclic monophosphate (cyclic AMP) production was induced by forskolin stimulation.
Human recombinant dopamine D2 receptor expressing Chinese hamster ovary/DHFR(−) cells were cultured in a culture medium (Iscove's Modified Dulbecco's Medium (IMDM culture medium), 10% fetal bovine serum, 50 I.U./ml penicillin, 50 μg/ml streptomycin, 200 μg/ml geneticin, 0.1 mM sodium hypoxanthine, 16 μM thymidine) at 37° C. and 5% carbon dioxide condition. Cells were seeded at 10^4 cells/well on a 96-well microtiter plate coated with poly-L-lysine and grown under the same condition for 2 days. Each well was washed with 100 μl of a culture medium (IMDM culture medium, 0.1 mM sodium hypoxanthine, 16 μM thymidine).

SMILES | Ki (Dopamine D2 receptor) [nM] | Ki [1] [nM] | Serotonin uptake inhibitory ratio (%) (300 nM) [2] | melting point | quantity of cyclic AMP suppressed to, as the maximum activity [3]
CNc1cc(C)c(OCCCN2CCN(c3cccc4sccc34)CC2)c(OC)c1.Cl [Example 11, N-methyl-4-[3-(4-benzo[b]thiophen-4-yl-piperazin-1-yl)propoxy]-3-methoxy-5-methylaniline hydrochloride] | 0.2 | 4.4 | 95.2 | 239.5 to 244 °C (dec.) | 
COc1cc(N(C)C)cc(C)c1OCCCN1CCN(c2cccc3sccc23)CC1.Cl [Example 15, 4-[3-(4-benzo[b]thiophen-4-yl-piperazin-1-yl)propoxy]-N,N-dimethyl-3-methoxy-5-methylaniline hydrochloride] | 0.4 | 5.9 | 95.3 | 234.5 to 240.5 °C (dec.) | 
COc1cc(NC(=O)CNC(=O)OC(C)(C)C)cc(C)c1OCCCN1CCN(c2cccc3sccc23)CC1 [Example 1059] | 0.4 | 3.8 | 97.2 | 140.5 to 142.5 °C | 
COc1cc(NC(=O)CNC(C)=O)cc(C)c1OCCCN1CCN(c2cccc3sccc23)CC1 [Example 1061] | 0.1 | 1.2 | 97.5 | 167.5 to 170.5 °C | 
COC(=O)N1CCN(c2cc(CO)c(OCCCN3CCN(c4cccc5sccc45)CC3)c(OC)c2)CC1 [Example 1087] | 0.3 | 2.6 | 97.1 | 128 to 130 °C | 
COc1cc(N2CCCCC2)cc(C)c1OCCCN1CCN(c2cccc3sccc23)CC1 [Example 1089] | 1 | 13.9 | 85.0 |  | 
CC(=O)Nc1cc(OCCCN2CCN(c3cccc4sccc34)CC2)n(C)n1 [Example 1106] | 1 | 7.1 | 69.9 |  | 
CN(C)C(=O)N1CCC(OCCCN2CCN(c3cccc4sccc34)CC2)CC1 [Example 1110] | 1.2 | 4.9 | 38.5 |  | 
CN(C)C(=O)c1csc(OCCCN2CCN(c3cccc4sccc34)CC2)n1 [Example 1113] | 0.7 | 5 | 59.3 |  | 
CN(C)c1cc(OCCCCN2CCN(c3cccc4sccc34)CC2)n(C)n1 [Example 1138] | 1.4 | 19.7 | 67.2 |  | 
NCCc1ccc(O)c(O)c1 [dopamine] |  |  |  |  | about 10%
